Legend:
[1] = tested on: NCI-H1650 cells; assay: Generation of drug-resistant NCI-H1650 colonies; type: cell-based; settings: for generation of drug-resistant clones in vitro: NCI-H1650, irreversible inhibitors at concentrations above 10 μM, even after ethyl methane sulfonate mutagenesis
[2] = tested on: EGFR autophosphorylation (Y1068), AKT and MAPK phosphorylation in NCI-H1650 cells; assay: Immunoblotting of EGFR signaling in parental cells; type: cell-based; settings: delE746-A750 EGFR
Description: Viable cells were counted 72 h after treatment with double-stranded RNA and are shown as a fraction relative to cells treated with nonspecific siRNA, with standard deviations based on triplicate samples. […] Rhodamine-tagged EGF is used to label EGFR at 5 and 20 rain, after addition of ligand. […] (Zeiss microscope, ×63 magnification).
(§1) Immunoblotting and Signaling Studies. […] Lysates were prepared in 2× gel loading buffer, sonicated, boiled, and then separated by 10% SDS/PAGE, followed by electrotransfer to polyvinylidene fluoride (PVDF) membranes, and immunoblotting. Antibodies used were phospho-EGFR Y1068 and phospho-mitogen-activated protein kinase (MAPK) (Cell Signaling Technology, Beverly, Mass.), phospho-AKT (BioSource International, Camarillo, Calif.), and total EGFR, MAPK, AKT, and tubulin (Santa Cruz Biotechnology).

[3] = tested on: NCI-H1650 cells (delE746-A750 EGFR); assay: Proliferation/cell killing of bronchoalveolar cancer cell line, crystal violet staining; settings: NCI-H1650 vs NCI-H1666
[4] = tested on: EGFR autophosphorylation, AKT and MAPK phosphorylation in NCI-H1975 cells (L858R and T790M EGFR); assay: Immunoblotting of EGFR signaling in T790M cell line; type: cell-based
Description: Total EGFR, AKT, and MAPK are shown as loading controls.
as §1

[5] = molecular target: ERBB2 (Homo sapiens, UniProt P04626); settings: read-out: IC50 for ERBB2; cited from earlier work
Sequence of ERBB2 (P04626 23-1255): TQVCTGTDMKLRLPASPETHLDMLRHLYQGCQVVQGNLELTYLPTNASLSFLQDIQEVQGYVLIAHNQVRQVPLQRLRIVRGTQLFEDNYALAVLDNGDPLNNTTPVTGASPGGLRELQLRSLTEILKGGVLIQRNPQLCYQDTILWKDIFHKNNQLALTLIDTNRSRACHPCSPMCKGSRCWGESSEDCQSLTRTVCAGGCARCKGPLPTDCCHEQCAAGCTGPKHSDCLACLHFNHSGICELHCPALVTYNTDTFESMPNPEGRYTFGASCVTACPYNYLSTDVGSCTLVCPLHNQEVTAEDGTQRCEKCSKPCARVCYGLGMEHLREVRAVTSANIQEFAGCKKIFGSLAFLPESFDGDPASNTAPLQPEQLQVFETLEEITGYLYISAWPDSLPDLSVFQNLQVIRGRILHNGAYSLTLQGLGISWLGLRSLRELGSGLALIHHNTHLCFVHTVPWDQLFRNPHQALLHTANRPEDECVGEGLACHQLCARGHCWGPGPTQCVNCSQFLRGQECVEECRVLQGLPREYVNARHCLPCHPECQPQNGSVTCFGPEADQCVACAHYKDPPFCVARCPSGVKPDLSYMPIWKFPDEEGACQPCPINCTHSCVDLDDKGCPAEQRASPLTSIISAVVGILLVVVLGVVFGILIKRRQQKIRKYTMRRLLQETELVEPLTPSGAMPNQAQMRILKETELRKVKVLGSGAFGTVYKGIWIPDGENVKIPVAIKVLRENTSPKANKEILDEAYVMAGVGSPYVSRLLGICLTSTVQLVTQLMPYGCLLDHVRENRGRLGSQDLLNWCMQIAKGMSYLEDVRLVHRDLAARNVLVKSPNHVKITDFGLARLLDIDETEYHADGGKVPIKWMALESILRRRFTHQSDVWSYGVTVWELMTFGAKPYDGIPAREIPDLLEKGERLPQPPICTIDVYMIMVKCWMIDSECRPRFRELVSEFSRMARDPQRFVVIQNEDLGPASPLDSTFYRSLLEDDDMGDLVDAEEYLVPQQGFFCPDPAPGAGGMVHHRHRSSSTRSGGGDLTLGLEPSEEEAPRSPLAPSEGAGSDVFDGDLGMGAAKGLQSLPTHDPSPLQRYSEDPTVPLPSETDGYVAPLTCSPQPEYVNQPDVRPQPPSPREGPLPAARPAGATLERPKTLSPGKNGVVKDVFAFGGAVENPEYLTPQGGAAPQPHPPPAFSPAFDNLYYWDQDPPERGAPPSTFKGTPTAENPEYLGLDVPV

| SMILES | frequency of drug-resistant colonies ([1]; 20 μM gefitinib, irrespective of mutagen treatment) | generation of drug-resistant clones in vitro [1] | effectiveness relative to gefitinib in suppressing EGFR autophosphorylation (Y1068), AKT and MAPK phosphorylation [2] | killing of NSCLC cells harboring an EGFR mutation compared with cells expressing wild-type receptor [3] | suppression of ligand-induced EGFR autophosphorylation and downstream AKT and MAPK phosphorylation [4] | IC50 [5] |
| --- | --- | --- | --- | --- | --- | --- |
| COc1cc2ncnc(Nc3ccc(F)c(Cl)c3)c2cc1OCCCN1CCOCC1 [gefitinib, Gefitinib, reference compound] | ≈ 10^−5 | readily generated | – | – | – | – |
| CCOc1cc2ncc(C#N)c(Nc3ccc(OCc4cccc(F)c4)c(Cl)c3)c2cc1NC(=O)/C=C/CN(C)C [HKI-357] | – | not readily generated | 10 fold | increased cell killing | considerably more effective than gefitinib | – |
| CCOc1cc2ncc(C#N)c(Nc3ccc(F)c(Cl)c3)c2cc1NC(=O)/C=C/CN(C)C [EKB-569] | – | not readily generated | – | increased cell killing | – | 1300 nM |
